Experimental data from BindingDB's records for doi:10.1016/s0960-894x(98)00132-2 (Green Cross Research Laboratories, 1999).

Target: Chymotrypsinogen A (Bos taurus) (UniProt P00766)
Test: Compound was evaluated for inhibitory activity against Bovine Chymotrypsinogen

Row | Compound | Ki [nM]
1 | CC(C)(C)OC(=O)NC(CCC(=O)O)C(=O)N1CCC[C@H]1C(=O)NC(Cc1ccccc1)C(=O)C(F)(F)C(=O)Nc1cccc(CC(=O)O)c1 (stereo partly drawn) [5-{(S)-2-[1-Benzyl-3-(3-carboxymethyl-phenylcarbamoyl)-3,3-difluoro-2-oxo-propylcarbamoyl]-pyrrolidin-1-yl}-4-tert-butoxycarbonylamino-5-oxo-pentanoic acid] | 3950
2 | CC(C)(C)OC(=O)NC(CCC(=O)O)C(=O)N1CCC[C@H]1C(=O)NC(Cc1ccccc1)C(=O)C(F)(F)C(=O)Nc1cc(C(=O)O)cs1 (stereo partly drawn) [5-(4-{[(S)-1-(2-tert-Butoxycarbonylamino-4-carboxy-butyryl)-pyrrolidine-2-carbonyl]-amino}-2,2-difluoro-3-oxo-5-phenyl-pentanoylamino)-thiophene-3-carboxylic acid] | > 100000
3 | CC(C)(C)OC(=O)NC(CCC(=O)O)C(=O)N1CCC[C@H]1C(=O)NC(Cc1ccccc1)C(=O)C(F)(F)C(=O)Nc1cccc(C(N)=O)c1 (stereo partly drawn) [5-{(S)-2-[1-Benzyl-3-(3-carbamoyl-phenylcarbamoyl)-3,3-difluoro-2-oxo-propylcarbamoyl]-pyrrolidin-1-yl}-4-tert-butoxycarbonylamino-5-oxo-pentanoic acid] | 1220
4 | CC(C)(C)OC(=O)NC(CCC(=O)O)C(=O)N1CCC[C@H]1C(=O)NC(Cc1ccccc1)C(=O)C(F)(F)C(=O)Nc1cccc(S(N)(=O)=O)c1 (stereo partly drawn) [5-{(S)-2-[1-Benzyl-3,3-difluoro-2-oxo-3-(3-sulfamoyl-phenylcarbamoyl)-propylcarbamoyl]-pyrrolidin-1-yl}-4-tert-butoxycarbonylamino-5-oxo-pentanoic acid] | 1030
5 | CC(C)(C)OC(=O)NC(CC(=O)O)C(=O)N1CCC[C@H]1C(=O)NC(Cc1ccccc1)C(=O)C(F)(F)C(=O)Nc1cccc(C(=O)O)c1 (stereo partly drawn) [3-(4-{[(S)-1-(2-tert-Butoxycarbonylamino-3-carboxy-propionyl)-pyrrolidine-2-carbonyl]-amino}-2,2-difluoro-3-oxo-5-phenyl-pentanoylamino)-benzoic acid] | > 100000
6 | CC(C)(C)OC(=O)NC(CCC(=O)O)C(=O)N1CCC[C@H]1C(=O)NC(Cc1ccccc1)C(=O)C(F)(F)C(=O)Nc1cccc(C(=O)O)c1 (stereo partly drawn) [3-(4-{[(S)-1-(2-tert-Butoxycarbonylamino-4-carboxy-butyryl)-pyrrolidine-2-carbonyl]-amino}-2,2-difluoro-3-oxo-5-phenyl-pentanoylamino)-benzoic acid] | 1300
